In US20140349943A1, “TOPICAL FORMULATIONS OF CHEMERIN C15 PEPTIDES FOR THE TREATMENT OF DERMATOLOGICAL CONDITIONS” (priority 2011, published 2014):
Peptide text beside a SMILES is read from it.

Legend:
ChemR23 (CMKLR1) = target: T1, ChemR23 (CMKLR1) (Homo sapiens, UniProt Q99788); test: PathHunter β-Arrestin assay, ChemR23 (CMKLR1), agonist and antagonist mode; format: cell-based
T1 construct: host or cells: CHO
T1 sequence (Q99788 1-373): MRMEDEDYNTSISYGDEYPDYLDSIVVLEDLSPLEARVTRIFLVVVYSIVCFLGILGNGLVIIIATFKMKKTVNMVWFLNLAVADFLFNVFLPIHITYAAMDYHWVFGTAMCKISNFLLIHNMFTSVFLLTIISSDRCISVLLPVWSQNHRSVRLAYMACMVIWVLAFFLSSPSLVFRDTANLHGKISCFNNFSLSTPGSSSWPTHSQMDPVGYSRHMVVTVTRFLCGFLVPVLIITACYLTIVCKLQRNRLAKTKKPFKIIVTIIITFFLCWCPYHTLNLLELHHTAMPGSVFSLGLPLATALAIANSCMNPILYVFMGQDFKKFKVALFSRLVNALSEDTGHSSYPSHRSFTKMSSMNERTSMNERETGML
Description: (§1) The DiscoveRx PathHunter™ eXpress GPCR activity assay was employed to test agonist and antagonist activities of the chemerin peptides against the GPCRs ChemR23 and GPR1. Two assay formats were tested, the PathHunter β-Arrestin assay and the Hit Hunter cAMP Hunter assay.
(§2) The PathHunter β-Arrestin assay monitors the activation of a GPCR in a homogenous, non-imaging assay format using a technology developed by DiscoveRx called complementation, which utilizes an enzyme fragment complementation (EFC) assay with β-galactosidase (β-Gal) as the functional reporter. The enzyme is split into two complementary portions expressed as fusion proteins in the cell. The Enzyme Acceptor (EA) is fused to β-Arrestin and the ProLink donor peptide is fused to the GPCR of interest. Upon GPCR stimulation, β-Arrestin is recruited to the receptor for desensitization, bringing the two fragments of β-Gal together and allowing complementation to occur.
(§3) The assay involves CHO cell lines that express 1) a GPCR of interest (e.g. ChemR23 or GPR1) that has a fragment of the βgal enzyme fused to the C-terminus of the receptor and 2) a β-arrestin fused to the main β-gal enzyme. When the agonist binds to the receptor, β-arrestin is recruited to the receptor and the β-gal enzyme is complemented by the fragment from the GPCR thus forming a functional β-gal enzyme. A substrate is then added and luminescence is generated to detect β-arrestin recruitment.
(§4) The protocol used was a standard protocol employed by DiscoveRx PathHunter™ profiling service. […] Once it was established that the cells were healthy and growing normally, cells were passaged from flasks using cell dissociation reagent and seeded into white walled clear bottom 384-well microplates for compound profiling. For profiling, cells were seeded at a density of 5000 cells per well in a total volume of 20 μL and were allowed to adhere and recover overnight prior to compound addition.
(§5) For the agonist assay, intermediate dilution of compound stocks were generated such that 5 μL of 5× compound could be added to each well with a final DMSO concentration of 1% of total volume. For profiling compound in agonist mode, the cells were incubated in the presence of compound at 37° C. for 90 minutes.
(§6) For the antagonist assay, agonist dose curves were performed the morning of profiling to determine the EC80 value for the following antagonist testing with compounds. 5 μL of 5× agonist (i.e. chemerin) was added to each well with an equal concentration of vehicle present. EC80 agonist concentration was determined directly from agonist dose curve. For antagonist determination, cells were preincubated with antagonist followed by agonist challenge at the EC80 concentration: 4. 5 μL of 5× compound added to cells and incubated at 37° C. for 30 minutes. 5. 5 μL of 6× EC80 agonist added to cells and incubated at 37° C. for 90 minutes.
(§7) Microplates were read following signal generation with a PerkinElmer Envision™ instrument for chemiluminescent signal detection
(§8) Dose curves in the presence and absence of compound were plotted using GraphPad Prism or Activity Base. For agonist mode assays, percentage activity was calculated using the following formula: % Activity=100%×(Mean RLU of test sample−mean RLU of vehicle control)/(mean MAX RLU control ligand−mean RLU of vehicle control)). For antagonist mode assays, percentage inhibition was calculated using the following formula: % Inhibition=100%×(1−(Mean RLU of test sample−mean RLU of vehicle control)/(mean RLU of EC80 control−mean RLU of vehicle control)).

GPR1 = target: T2, GPR1 (Homo sapiens, UniProt P46091); test: PathHunter β-Arrestin assay, GPR1, agonist and antagonist mode; format: cell-based; settings: for agonist activity, in words: FIG. 2A/2B
T2 construct: host or cells: CHO
T2 sequence (P46091 1-355): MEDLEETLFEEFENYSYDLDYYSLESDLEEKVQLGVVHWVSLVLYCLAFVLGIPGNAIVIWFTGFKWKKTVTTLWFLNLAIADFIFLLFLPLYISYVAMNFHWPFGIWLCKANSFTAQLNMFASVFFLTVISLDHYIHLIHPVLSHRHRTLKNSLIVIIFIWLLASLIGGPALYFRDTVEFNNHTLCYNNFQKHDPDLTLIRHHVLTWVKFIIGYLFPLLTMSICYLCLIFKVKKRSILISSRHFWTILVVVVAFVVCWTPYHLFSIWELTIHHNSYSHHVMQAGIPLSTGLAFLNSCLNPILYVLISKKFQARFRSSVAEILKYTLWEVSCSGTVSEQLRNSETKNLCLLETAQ
Description: as §1, §2, §3, §4, §5, §6, §7, §8

ChemR23 = target: T3, ChemR23 (Homo sapiens, UniProt Q99788); test: Hit Hunter cAMP Hunter assay, human ChemR23; format: cell-based
T3 sequence (Q99788 1-373): T1 sequence (Q99788 1-373)
Description: as §1
as §4, with “reagent buffer” for “reagent”, “10000” for “5000”, “addition. Cells were treated the following day using the protocols shown below. cAMP modulation was determined using the DiscoveRx HitHunter cAMP XS+ assay.” for “addition.”
For profiling compound in agonist mode, the cells were incubated in the presence of compound at 37° C. for 30 minutes.
EC80 agonist concentration was determined directly from agonist dose curve.
Microplates were read following signal generation with a PerkinElmer Envision™ instrument for chemiluminescent signal detection.
Dose curves in the presence and absence of compound were plotted using GraphPad Prism or Activity Base.

mChemR23 = target: T4, mChemR23 (Mus musculus, UniProt P97468); test: PathHunter β-Arrestin assay, mouse ChemR23; format: cell-based
T4 construct: host or cells: CHO (stated generally for the PathHunter assay)
T4 sequence (P97468 1-371): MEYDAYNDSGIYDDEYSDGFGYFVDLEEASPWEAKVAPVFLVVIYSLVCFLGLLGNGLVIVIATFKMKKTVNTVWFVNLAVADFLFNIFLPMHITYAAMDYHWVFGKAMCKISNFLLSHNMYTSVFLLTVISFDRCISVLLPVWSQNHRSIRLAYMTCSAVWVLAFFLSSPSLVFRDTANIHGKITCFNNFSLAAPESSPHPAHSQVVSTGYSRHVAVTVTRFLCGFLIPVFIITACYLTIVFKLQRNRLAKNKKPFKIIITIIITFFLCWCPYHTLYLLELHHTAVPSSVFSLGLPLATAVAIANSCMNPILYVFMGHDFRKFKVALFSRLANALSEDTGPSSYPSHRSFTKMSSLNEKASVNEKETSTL
Description: as §1, §2, §3, §4, §5
as §6, with “5 μL of 6× EC80 agonist added to cells and incubated at 37° C. for 90 minutes.” left out
as §7, §8

[1] = test system: IFNγ/LPS stimulated human macrophages; test: Cytokine secretion by IFNγ/LPS stimulated human macrophages (Luminex); format: cell-based
Excerpt: In this example, the ability of human chemerin C15 to inhibit secretion of cytokines from activated human macrophages was examined. For this experiment, the activity of the human chemerin C15 peptide […] (SEQ ID NO: 1) was compared to that of the human chemerin C17 peptide […] (SEQ ID NO: 25). The C15 and C17 peptides were synthesized by solid phase synthesis using BOP coupling of FMOC protected amino acids with final cleavage from the resin with TFA. Peptides were purified by reverse phase C18 chromatography using a water/acetonitrile gradient.
Human macrophages were derived from human CD14+ monocytes obtained from 3 donors. On Day 1, the isolated monocytes were thawed and seeded in triplicate for each group in 1 ml RPMI 1640 GlutaMAX™ media (supplemented with 10% FBS, 100 U/ml penicillin, 100 μg/ml streptomycin, 0.05 μM mercaptoethanol, 1% NEAA and 1% sodium pyruvate) per well of a 24 well cell culture dish at a cell concentration of 5×10^5 cells/ml. M-CSF was added to each well to give a final concentration of 25 ng/ml. Cells were grown for 7 days at 37° C. with 5% CO2 to differentiate the cells into macrophages. Media and M-CSF were replaced after 4 days.
Following differentiation, the media containing M-CSF was removed. The cells were washed and vehicle control, dexamethasone, C15 or C17 were added to the appropriate wells. The test peptides were dissolved in 50% DMSO/water prior to addition. C-15 (MW 1669; 16.7 mg/ml) was added to a final concentration of […] and C17 (MW 1904; 19.0 mg/ml) was added to a final concentration of 1 μM. Dexamethasone was added to a final concentration of 1 μM. Following addition to the wells, the plates were incubated at 37° C. with 5% CO2 for 1 hour. An equal volume of complete media was added to the non-treated wells. Control or test treatments were maintained at the correct concentration throughout the assay.
IFNγ (final concentration 20 ng/ml) was then added to the appropriate wells. Following IFNγ addition, the plates were incubated at 37° C. with 5% CO2 for 4 hours. The concentration of vehicle control, test treatments or dexamethasone was maintained during IFNγ stimulation. LPS (final concentration 10 ng/ml) was then added to the appropriate wells. Following LPS addition, the plates were incubated at 37° C. with 5% CO2 for 15 hours. After 6 hours, ˜60 μl of culture supernatant was removed from all wells and stored at −80° C. for analysis. The concentration of vehicle control, test treatments or dexamethasone was maintained during LPS stimulation.
At 15 hours post LPS stimulation, the remaining cell culture supernatant was harvested and stored at −80° C. until assayed. The concentration of vehicle control, test treatments or dexamethasone was maintained until culture termination.
Cell culture supernatants taken at 6 hours and 15 hours post LPS addition were assayed for the production of RANTES, TNFα, IL-1β, IL-6, IL-10, IL-12p40 (subunit common to IL-12 and IL-23) and IL-15 (negative control) using Luminex® technology (Procarta human cytokine kit; Panomics) following the manufacturer's instructions.
In this experiment, the importance of the FYFP motif (SEQ ID NO: 2) in the human chemerin C15 peptide on anti-inflammatory activity was examined. The ability of the human chemerin C15 peptide […] (SEQ ID NO: 1) was compared to that of a substituted chemerin C15 peptide having the amino acid sequence […] (SEQ ID NO: 27), where the second phenylalanine in the peptide is modified to alanine. The experiment was performed as described in Example 1. 0.1 pM 0.5 pM and 1 pM concentrations of the C15 and C15 mutant peptides were tested. Cytokine expression was determined as described in Example 1.

psoriasis patients = settings: cited from earlier work
[2] = Example 3, 0.1 pM 0.5 pM and 1 pM tested, FIG. 3

Q: With `C[C@H](N)C(=O)NCC(=O)N[C@@H](CCC(=O)O)C(=O)N[C@@H](CC(=O)O)C(=O)N1CCC[C@H]1C(=O)N[C@@H](Cc1c[nH]cn1)C(=O)N[C@@H](CO)C(=O)N[C@@H](Cc1ccccc1)C(=O)N[C@@H](Cc1ccc(O)cc1)C(=O)N[C@@H](Cc1ccccc1)C(=O)N1CCC[C@H]1C(=O)NCC(=O)N[C@@H](CCC(N)=O)C(=O)N[C@@H](Cc1ccccc1)C(=O)N[C@@H](C)C(=O)N[C@@H](Cc1ccccc1)C(=O)O` [C16 (human)] (H-AGEDPHSFYFPGQFAF-OH; N-terminus and C-terminus assumed) as the compound, how does the IC50 (ChemR23 (CMKLR1)) read?
A: > 10 µM

Q: And the “Rank Order” value (ChemR23 (CMKLR1); ChemR23, agonist)?
A: 1

Q: And the “% Max Activity” value (ChemR23 (CMKLR1); ChemR23, agonist mode)?
A: 98.6%

Q: What about the “% Max Inhibition” value (ChemR23 (CMKLR1); ChemR23, antagonist mode, chemerin at EC80) of the same compound?
A: 0%

Q: And the “agonist activity, in words” value (ChemR23 (CMKLR1); human ChemR23, FIG. 2A/2B)?
A: exhibited agonist activity

Q: What about the IC50 (GPR1) of the same compound?
A: > 10 µM

Q: What about the “agonist activity, in words” value (GPR1; GPR1) of the same compound?
A: exhibited agonist activity

Q: What about the “Rank Order” value (GPR1; GPR1, agonist) of the same compound?
A: 2

Q: And the “% Max Activity” value (GPR1; GPR1, agonist mode)?
A: 87.9%

Q: And the “% Max Inhibition” value (GPR1; GPR1, antagonist mode, chemerin at EC80)?
A: 0%

Q: And the IC50 (ChemR23)?
A: > 10 µM

Q: What about the IC50 (mChemR23) of the same compound?
A: > 10 µM

Q: Which results are given for `C[C@@H]1C[C@H]2[C@@H]3CCC4=CC(=O)C=C[C@]4(C)[C@@]3(F)[C@@H](O)C[C@]2(C)[C@@]1(O)C(=O)CO` [Dexamethasone]?
A: inhibition of IL-1β secretion ([1]; 1 μM dosage): approximately 30%; inhibition of RANTES secretion ([1]; 1 μM dosage): ~50%; inhibition at 1 µM ([1]; Homo sapiens, Macrophage, dexamethasone 1 μM, read-out: inhibition of the production of IL-10): ~70%

Q: Which “percent inhibition of RANTES expression” value [1, 2] does the source give for “AGEDPHGYFAPGQFA [mutant C15 polypeptide]” here?
A: unable to inhibit expression

Q: And the “percent inhibition of TNFα expression” value [1, 2]?
A: unable to inhibit expression

Q: What does the source list for “Stelara: approved systemic mono-clonal antibody for psoriasis, clears IL-23”?
A: time of maximal serum concentrations (psoriasis patients; post-injection): 5 days; improvement in PASI score (psoriasis patients; within two weeks after a single dose): 50%

Q: What does the source list for “hrChemerin: chemerin protein, control agonist of ChemR23 and GPR1”?
A: agonist activity, in words (GPR1; GPR1): potent agonist activity; EC50 (mChemR23; Arrestin, Agonist, mChemR23, read-out: RC50 (uM), EC50): 0.00154 µM
